Experimental data taken from patent US20120264691 (published 2012).
“Also recorded” adds a separate entry of the source.

How the values were obtained:
[1] = purified water, pH 4.7, or adjusted to pH 1.8, 3.9 (hydrochloric acid) and 7.8 (sodium hydroxide); settings: 25±2° C., up to 3 day
[2] = Britton-Robinson buffer solution (pH 7.0); settings: 40±1° C.
[3] = 0.1M HCl aqueous solution (pH: 1.1); settings: 25±2° C., up to 72 hours
[4] = Mcllvain buffer solutions (pH: 2.0, 3.0, 4.0, 5.0, 6.0, 7.0, 8.0); settings: 25±2° C., up to 72 hours
[5] = Britton-Robinson buffer solutions having pH of 2.1, 3.1, 4.0, 5.0, 6.0, 7.0 and 7.9; settings: 40±1° C., up to 1 day

fragment found [1]	Substance	cleaved bond [1]	cleaved bond ([2]; up to 14 days)	fragment found ([2]; up to 14 days)	cleaved bond [3]	cleaved bond [4]	cleaved bond [5]	fragment found ([2]; up to 3 days)
Dha compound, 1 day	GSS(n-octanoyl)FLSPEHQRVQQRKESKKPPAKLQPR	hydrolytic cleavage of octanoyl group, 1 day	hydrolytic cleavage of octanoyl group of human ghrelin, major, 4 days; also recorded: β-elimination of octanoyl group of human ghrelin, major, 4 days	degradation product D = desacyl human ghrelin (3-28), 14 days; also recorded: degradation product E = [N^α—CO—C(═CH2)—OH]human ghrelin(4-28), 14 days	hydrolytic cleavage of octanoyl group, 8 hr.	hydrolytic cleavage of octanoyl group, 8 hr.	hydrolytic cleavage of octanoyl group, 1 day	
	[3-Dehydroalanine]human ghrelin							[N^α—CO—C(═CH2)—OH]human ghrelin(4-28) (2nd degradation product of Dha compound), 3 days
	desacylated human ghrelin			desacyl human ghrelin (3-28), major, 14 days				
